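Grown in 96-well plates, cells were treated for 48 hours with each compound at five concentrations. Insufficient inhibition: endpoint recorded as highest concentration tested. GI50 = concentration required for 50% inhibition of growth.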 Calls of active or inactive are those of the source. Rule as the data show it: active = GI50 up to about 1.1 µM and inactive = higher.
What was measured:
Experiment in all cases: NCI-60 cell line screen, 48 h
OVCAR-8 = tested on: OVCAR-8
M14 = tested on: M14
SK-OV-3 = tested on: SK-OV-3
786-0 = tested on: 786-0
SNB-75 = tested on: SNB-75
COLO 205 = tested on: COLO 205
SF-268 = tested on: SF-268
ACHN = tested on: ACHN
UACC-62 = tested on: UACC-62
NCI-H460 = tested on: NCI-H460
Malme-3M = tested on: Malme-3M
RXF 393 = tested on: RXF 393
SN12C = tested on: SN12C
PC-3 = tested on: PC-3
SK-MEL-2 = tested on: SK-MEL-2
MCF7 = tested on: MCF7
SNB-19 = tested on: SNB-19
HCT-15 = tested on: HCT-15
SR = tested on: SR
CCRF-CEM = tested on: CCRF-CEM
IGROV-1 = tested on: IGROV-1
KM12 = tested on: KM12
SF-295 = tested on: SF-295
HT-29 = tested on: HT-29
SK-MEL-28 = tested on: SK-MEL-28
SF-539 = tested on: SF-539
EKVX = tested on: EKVX
HOP-92 = tested on: HOP-92
CAKI-1 = tested on: CAKI-1
UO-31 = tested on: UO-31
K562 = tested on: K562
MOLT-4 = tested on: MOLT-4
OVCAR-3 = tested on: OVCAR-3
OVCAR-5 = tested on: OVCAR-5
NCI/ADR-RES = tested on: NCI/ADR-RES
RPMI-8226 = tested on: RPMI-8226
MDA-MB-231 = tested on: MDA-MB-231
SK-MEL-5 = tested on: SK-MEL-5
DU-145 = tested on: DU-145
NCI-H23 = tested on: NCI-H23
UACC-257 = tested on: UACC-257
A549 = tested on: A549
U-251 = tested on: U-251
NCI-H226 = tested on: NCI-H226
HL-60 = tested on: HL-60
HOP-62 = tested on: HOP-62
HCT-116 = tested on: HCT-116
MDA-MB-435 = tested on: MDA-MB-435
SW-620 = tested on: SW-620
HCC 2998 = tested on: HCC 2998
MDA-N = tested on: MDA-N
NCI-H522 = tested on: NCI-H522
LOX IMVI = tested on: LOX IMVI
Hs-578T = tested on: Hs-578T
OVCAR-4 = tested on: OVCAR-4
TK-10 = tested on: TK-10
T47D = tested on: T47D
A498 = tested on: A498
BT-549 = tested on: BT-549

Measured: GI50

COc1ccc(/C(=N/O)c2ccccc2C2=Nc3ccccc3C(NCc3ccccc3)O2)cc1C (centres undefined)
30.3 µM: HCT-15
inactive: OVCAR-8 27.2 µM | M14 39.4 µM | SK-OV-3 21.2 µM | 786-0 44.3 µM | SNB-75 24.9 µM | COLO 205 17.2 µM | SF-268 42.3 µM | ACHN 38 µM | UACC-62 23.9 µM | NCI-H460 29.9 µM | Malme-3M 18.6 µM | RXF 393 47.3 µM | SN12C 22.9 µM | PC-3 17.3 µM | SK-MEL-2 32.7 µM | MCF7 29.2 µM | SNB-19 36.6 µM | SR 32.6 µM | CCRF-CEM 19.1 µM | IGROV-1 40.5 µM | KM12 46.2 µM | SF-295 25 µM | HT-29 25.1 µM | SK-MEL-28 44.1 µM | SF-539 96.2 µM | EKVX 74.5 µM | HOP-92 20.5 µM | CAKI-1 56.2 µM | UO-31 20.6 µM | K562 16.7 µM | MOLT-4 29.5 µM | OVCAR-3 45.7 µM | OVCAR-5 33.8 µM | NCI/ADR-RES 41.8 µM | RPMI-8226 26.2 µM | MDA-MB-231 32.7 µM | SK-MEL-5 17.5 µM | DU-145 69.8 µM | NCI-H23 > 100 µM | UACC-257 12.9 µM | A549 49 µM | U-251 30.5 µM | NCI-H226 37 µM | HL-60 34.8 µM | HOP-62 31.1 µM | HCT-116 25.8 µM | MDA-MB-435 27.2 µM | SW-620 21.8 µM | HCC 2998 20.9 µM | MDA-N 34.7 µM | NCI-H522 34 µM | LOX IMVI 15.7 µM | Hs-578T 40.8 µM

Cc1nc2ccc(Cl)cc2c2c1CCN2c1ccc(F)cc1
36 µM: HCT-15
inactive: OVCAR-8 22.5 µM | M14 16.5 µM | SK-OV-3 > 100 µM | 786-0 11.8 µM | OVCAR-4 5.9 µM | COLO 205 9.95 µM | SF-268 58.3 µM | TK-10 18.1 µM | ACHN 17.7 µM | UACC-62 15.2 µM | NCI-H460 7.03 µM | Malme-3M 24.8 µM | RXF 393 17.1 µM | SN12C 26.5 µM | PC-3 11 µM | SK-MEL-2 23 µM | MCF7 12.2 µM | SNB-19 33.1 µM | SR 13.1 µM | CCRF-CEM 11.6 µM | IGROV-1 9.42 µM | KM12 25.8 µM | SF-295 82.8 µM | HT-29 4.94 µM | SK-MEL-28 20 µM | SF-539 22.3 µM | EKVX 45.2 µM | CAKI-1 18.4 µM | UO-31 5.4 µM | K562 5.35 µM | MOLT-4 4.72 µM | OVCAR-3 21.8 µM | OVCAR-5 84.9 µM | NCI/ADR-RES 13 µM | RPMI-8226 8.24 µM | MDA-MB-231 7.48 µM | SK-MEL-5 7.87 µM | DU-145 58.3 µM | NCI-H23 20.2 µM | UACC-257 14.3 µM | A549 43.5 µM | U-251 45.8 µM | NCI-H226 16.2 µM | HL-60 17.1 µM | HOP-62 18.9 µM | HCT-116 5.75 µM | MDA-MB-435 7.05 µM | T47D 36.1 µM | SW-620 27.1 µM | HCC 2998 23.6 µM | MDA-N 7 µM | NCI-H522 44.2 µM | LOX IMVI 8.73 µM | Hs-578T 26.3 µM
active: SNB-75 0.0266 µM | A498 0.891 µM

CCCCCC(=O)N[C@@H](c1ccco1)[C@@H](O)C(=O)O[C@H]1C[C@@]2(O)[C@@H](OC(=O)c3ccccc3)[C@@H]3[C@]4(OC(C)=O)CO[C@@H]4C[C@H](O)[C@@]3(C)C(=O)[C@H](OC(C)=O)C(=C1C)C2(C)C
active: OVCAR-8 < 0.0025 µM | SK-OV-3 < 0.0025 µM | COLO 205 < 0.0025 µM | SF-268 < 0.0025 µM | TK-10 0.0908 µM | ACHN 0.0406 µM | NCI-H460 < 0.0025 µM | RXF 393 < 0.0025 µM | MCF7 < 0.0025 µM | SNB-19 < 0.0025 µM | SR < 0.0025 µM | CCRF-CEM < 0.0025 µM | KM12 < 0.0025 µM | HT-29 < 0.0025 µM | HOP-92 < 0.0025 µM | UO-31 0.0575 µM | MOLT-4 < 0.0025 µM | RPMI-8226 < 0.0025 µM | SK-MEL-5 0.025 µM | NCI-H23 < 0.0025 µM | U-251 < 0.0025 µM | HOP-62 < 0.0025 µM | HCT-116 < 0.0025 µM | MDA-MB-435 < 0.0025 µM | HCC 2998 < 0.0025 µM | MDA-N < 0.0025 µM | NCI-H522 < 0.0025 µM | Hs-578T < 0.0025 µM
inactive: OVCAR-4 4.32 µM | EKVX > 25 µM | NCI/ADR-RES 1.75 µM
0.0295 µM: HCT-15

COc1cc(/C=C/C(=O)CC(=O)/C=C/c2ccc(OC(=O)CCCCC3CCSS3)c(OC)c2)ccc1OC(=O)CCCCC1CCSS1 (centres undefined)
inactive: OVCAR-8 > 100 µM | M14 > 100 µM | SK-OV-3 > 100 µM | 786-0 > 100 µM | OVCAR-4 > 100 µM | SNB-75 > 100 µM | COLO 205 > 100 µM | SF-268 > 100 µM | TK-10 > 100 µM | ACHN > 100 µM | UACC-62 > 100 µM | NCI-H460 > 100 µM | Malme-3M > 100 µM | RXF 393 > 100 µM | SN12C > 100 µM | PC-3 > 100 µM | SK-MEL-2 > 100 µM | MCF7 > 100 µM | SNB-19 > 100 µM | CCRF-CEM > 100 µM | IGROV-1 > 100 µM | KM12 > 100 µM | SF-295 > 100 µM | HT-29 > 100 µM | SK-MEL-28 > 100 µM | SF-539 > 100 µM | EKVX > 100 µM | UO-31 > 100 µM | K562 > 100 µM | MOLT-4 > 100 µM | OVCAR-3 > 100 µM | OVCAR-5 > 100 µM | NCI/ADR-RES > 100 µM | RPMI-8226 > 100 µM | MDA-MB-231 > 100 µM | SK-MEL-5 > 100 µM | DU-145 > 100 µM | NCI-H23 > 100 µM | UACC-257 > 100 µM | A549 > 100 µM | U-251 > 100 µM | NCI-H226 > 100 µM | HL-60 > 100 µM | HOP-62 > 100 µM | HCT-116 > 100 µM | MDA-MB-435 > 100 µM | BT-549 > 100 µM | SW-620 > 100 µM | MDA-N > 100 µM | NCI-H522 > 100 µM | LOX IMVI > 100 µM | Hs-578T > 100 µM
> 100 µM: HCT-15

Nc1ccc(-c2nc3ccc(F)cc3s2)cc1
inactive: OVCAR-8 48.3 µM | M14 36.4 µM | 786-0 35.4 µM | SNB-75 31.5 µM | COLO 205 17.9 µM | SF-268 37.3 µM | TK-10 26.6 µM | ACHN 21 µM | UACC-62 16.6 µM | Malme-3M 51.8 µM | SN12C 33 µM | PC-3 17.2 µM | SK-MEL-2 19.8 µM | SNB-19 32.8 µM | SR 77.3 µM | CCRF-CEM 19.1 µM | KM12 25.2 µM | SF-295 25.5 µM | HT-29 38.2 µM | SK-MEL-28 60.1 µM | SF-539 36.4 µM | EKVX 32 µM | HOP-92 29.4 µM | CAKI-1 31.1 µM | UO-31 26 µM | K562 43.7 µM | MOLT-4 > 100 µM | OVCAR-3 22.5 µM | NCI/ADR-RES 33.9 µM | RPMI-8226 18.6 µM | MDA-MB-231 25.3 µM | SK-MEL-5 15.3 µM | DU-145 23.7 µM | NCI-H23 31.3 µM | UACC-257 43.2 µM | A549 28.1 µM | U-251 31.4 µM | HOP-62 29.5 µM | HCT-116 36.6 µM | MDA-MB-435 25.9 µM | BT-549 39.4 µM | SW-620 51.9 µM | MDA-N 39.4 µM | NCI-H522 30.8 µM | A498 30 µM | LOX IMVI 28.7 µM | Hs-578T 20.2 µM
35.8 µM: HCT-15
